Experiments:
[1] = target: T1, hP2X3 (human Purinergic P2X receptors subtype 3), clone A (Homo sapiens, UniProt P56373); experiment: hP2X3 FLIPR calcium (Fluo-4) antagonist assay, clone A; details: Human P2X3 FLIPR Clone A Mean IC50 (nM), RLE cells expressing hP2X3 clone A (AB016608); agonist 500 nM α,β-methylene-ATP
T1 sequence (P56373 1-397): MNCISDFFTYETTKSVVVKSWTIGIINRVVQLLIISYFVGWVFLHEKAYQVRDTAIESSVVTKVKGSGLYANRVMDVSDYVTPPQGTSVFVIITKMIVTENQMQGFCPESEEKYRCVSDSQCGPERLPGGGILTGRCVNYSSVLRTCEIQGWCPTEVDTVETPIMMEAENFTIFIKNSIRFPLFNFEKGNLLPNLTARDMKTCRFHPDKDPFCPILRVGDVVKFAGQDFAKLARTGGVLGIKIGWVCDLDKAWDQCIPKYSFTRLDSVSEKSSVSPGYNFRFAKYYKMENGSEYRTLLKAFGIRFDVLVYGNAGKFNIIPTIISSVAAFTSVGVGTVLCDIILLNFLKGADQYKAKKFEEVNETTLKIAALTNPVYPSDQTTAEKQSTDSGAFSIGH

[2] = target: T2, hP2X3 (human Purinergic P2X receptors subtype 3), clone B (Homo sapiens, UniProt P56373); experiment: hP2X3 FLIPR calcium (Fluo-4) antagonist assay, clone B; details: Human P2X3 FLIPR Clone B IC50 (nM), RLE cells expressing hP2X3 clone B (NM_002559); agonist 500 nM α,β-methylene-ATP
T2 sequence (P56373 1-397): T1 sequence (P56373 1-397)

CCN(c1nc(N2CCN(C(C)=O)CC2)nc2c1CN(C(C)C)C2=O)C(C)c1ccc2ncccc2c1 (single isomer, unassigned) [Example 257, 2-(4-acetylpiperazin-1-yl)-4-(ethyl(1-(quinolin-6-yl)ethyl)amino)-6-isopropyl-5H-pyrrolo[3,4-d]pyrimidin-7(6H)-one]
IC50 [1]: 83.2 nM | IC50 [2]: 80 nM

CCN(c1nc(N2CCN(C(C)=O)CC2)nc2c1CN(C(C)C)C2=O)C(C)c1ccc2ncccc2c1 (single isomer, unassigned) [Example 258, 2-(4-acetylpiperazin-1-yl)-4-(ethyl(1-(quinolin-6-yl)ethyl)amino)-6-isopropyl-5H-pyrrolo[3,4-d]pyrimidin-7(6H)-one]
IC50 [1]: 232 nM | IC50 [2]: 250 nM

CCOc1ccc(CN(C)c2nc(N3CCN(C(C)=O)CC3)nc3c2CN(C(C)C)C3=O)c(OC)c1 [Example 334, 2-(4-acetylpiperazin-1-yl)-4-((4-ethoxy-2-methoxybenzyl)(methyl)amino)-6-isopropyl-5H-pyrrolo[3,4-d]pyrimidin-7(6H)-one]
IC50 [1]: 2970 nM

CCOc1ccc(CNc2nc(N3CCN(C(C)=O)CC3)nc3c2CN(C(C)C)C3=O)c(OC)c1 [Example 335, 2-(4-acetylpiperazin-1-yl)-4-(4-ethoxy-2-methoxybenzylamino)-6-isopropyl-5H-pyrrolo[3,4-d]pyrimidin-7(6H)-one]
IC50 [1]: 225 nM

CCOc1cc(OC)ccc1CN(C)c1nc(N2CCN(C(C)=O)CC2)nc2c1CN(C(C)C)C2=O [Example 336, 2-(4-acetylpiperazin-1-yl)-4-((2-ethoxy-4-methoxybenzyl)(methyl)amino)-6-isopropyl-5H-pyrrolo[3,4-d]pyrimidin-7(6H)-one]
IC50 [1]: 1610 nM

COc1cc(OC(C)C)ccc1CNc1nc(N2CCN(C(C)=O)CC2)nc2c1CN(C(C)C)C2=O [Example 337, 2-(4-acetylpiperazin-1-yl)-4-(4-isopropoxy-2-methoxybenzylamino)-6-isopropyl-5H-pyrrolo[3,4-d]pyrimidin-7(6H)-one]
IC50 [1]: 79.5 nM

COCc1ccc([C@@H](C)Nc2nc(N3CCN(C(C)=O)CC3)nc3c2CN(C(C)C)C3=O)cc1F [Example 338, 2-(4-acetylpiperazin-1-yl)-4-({(1R)-1-[3-fluoro-4-(methoxymethyl)phenyl]ethyl}amino)-6-(1-methylethyl)-5,6-dihydro-7H-pyrrolo[3,4-d]pyrimidin-7-one]
IC50 [1]: 2640 nM

CC(=O)N1CCN(c2nc3c(c(N(C)Cc4cnn(-c5ccc(F)cc5)c4)n2)CN(C(C)C)C3=O)CC1 [Example 339, 2-(4-acetylpiperazin-1-yl)-4-[{[1-(4-fluorophenyl)-1H-pyrazol-4-yl]methyl}(methyl)amino]-6-(1-methylethyl)-5,6-dihydro-7H-pyrrolo[3,4-d]pyrimidin-7-one]
IC50 [1]: 2280 nM

CC(C)N1Cc2c(NC(C)(C)Cc3ccc(F)cc3)nc(N3CCn4ccnc4C3)nc2C1=O [Example 340, 2-(5,6-dihydroimidazo[1,2-a]pyrazin-7(8H)-yl)-4-{[2-(4-fluorophenyl)-1,1-dimethylethyl]amino}-6-(1-methylethyl)-5,6-dihydro-7H-pyrrolo[3,4-d]pyrimidin-7-one]
IC50 [1]: 2710 nM

CC(=O)N1CCN(c2nc3c(c(N(C)Cc4cc5ccc(Cl)cc5cn4)n2)CN(C(C)C)C3=O)CC1 [Example 341, 2-(4-acetylpiperazin-1-yl)-4-(((7-chloroisoquinolin-3-yl)methyl)(methyl)amino)-6-isopropyl-5H-pyrrolo[3,4-d]pyrimidin-7(6H)-one]
IC50 [1]: 29.2 nM

CC(=O)N1CCN(c2nc3c(c(N(C)Cc4cc5cc(C)ccc5cn4)n2)CN(C(C)C)C3=O)CC1 [Example 342, 2-(4-acetylpiperazin-1-yl)-6-isopropyl-4-(methyl((6-methylisoquinolin-3-yl)methyl)amino)-5H-pyrrolo[3,4-d]pyrimidin-7(6H)-one]
IC50 [1]: 1230 nM

CC(=O)N1CCN(c2nc3c(c(N(C)Cc4cc5cc(Cl)ccc5cn4)n2)CN(C(C)C)C3=O)CC1 [Example 348, 2-(4-acetylpiperazin-1-yl)-4-(((6-chloroisoquinolin-3-yl)methyl)(methyl)amino)-6-isopropyl-5H-pyrrolo[3,4-d]pyrimidin-7(6H)-one]
IC50 [1]: 2720 nM

CC(=O)N1CCN(c2nc3c(c(N(C)Cc4cc5cc(F)ccc5cn4)n2)CN(C(C)C)C3=O)CC1 [Example 349, 2-(4-acetylpiperazin-1-yl)-4-(((6-fluoroisoquinolin-3-yl)methyl)(methyl)amino)-6-isopropyl-5H-pyrrolo[3,4-d]pyrimidin-7(6H)-one]
IC50 [1]: 1050 nM

CC(=O)N1CCN(c2nc3c(c(N(C)Cc4cc5ccc(F)cc5cn4)n2)CN(C(C)C)C3=O)CC1 [Example 350, 2-(4-acetylpiperazin-1-yl)-4-(((7-fluoroisoquinolin-3-yl)methyl)(methyl)amino)-6-isopropyl-5H-pyrrolo[3,4-d]pyrimidin-7(6H)-one]
IC50 [1]: 29.9 nM

CC(=O)N1CCN(c2nc3c(c(N(C)Cc4cc5ccc(C)cc5cn4)n2)CN(C(C)C)C3=O)CC1 [Example 353, 2-(4-acetylpiperazin-1-yl)-6-isopropyl-4-(methyl((7-methylisoquinolin-3-yl)methyl)amino)-5H-pyrrolo[3,4-d]pyrimidin-7(6H)-one]
IC50 [1]: 61.1 nM

CC(=O)N1CCN(c2nc(NCc3ccc4c(ccn4C)c3)c3c(n2)C(=O)N(C(C)C)C3)CC1 [Example 354, 2-(4-acetylpiperazin-1-yl)-6-(1-methylethyl)-4-{[(1-methyl-1H-indol-5-yl)methyl]amino}-5,6-dihydro-7H-pyrrolo[3,4-d]pyrimidin-7-one]
IC50 [1]: 494 nM

CC(=O)N1CCN(c2nc3c(c(N(C)Cc4ccc5ccn(C)c5c4)n2)CN(C(C)C)C3=O)CC1 [Example 355, 2-(4-acetylpiperazin-1-yl)-6-(1-methylethyl)-4-{methyl[(1-methyl-1H-indol-6-yl)methyl]amino}-5,6-dihydro-7H-pyrrolo[3,4-d]pyrimidin-7-one]
IC50 [1]: 5760 nM

CC(=O)N1CCN(c2nc(NCc3ccc4ccn(C)c4c3)c3c(n2)C(=O)N(C(C)C)C3)CC1 [Example 356, 2-(4-acetylpiperazin-1-yl)-6-(1-methylethyl)-4-{[(1-methyl-1H-indol-6-yl)methyl]amino}-5,6-dihydro-7H-pyrrolo[3,4-d]pyrimidin-7-one]
IC50 [1]: 1060 nM

CCOc1ccc([C@@H](C)Nc2nc(N3CCN(C(C)=O)CC3)nc3c2CN(C(C)C)C3=O)c(OCC)c1 [Example 357, (R)-2-(4-acetylpiperazin-1-yl)-4-(1-(2,4-diethoxyphenyl)ethylamino)-6-isopropyl-5H-pyrrolo[3,4-d]pyrimidin-7(6H)-one]
IC50 [1]: 163 nM

CC(=O)N1CCN(c2nc(N[C@H](C)c3ccc(CN(C)C)cc3)c3c(n2)C(=O)N(C(C)C)C3)CC1 [Example 358, (R)-2-(4-acetylpiperazin-1-yl)-4-(1-(4-((dimethylamino)methyl)phenyl)ethylamino)-6-isopropyl-5H-pyrrolo[3,4-d]pyrimidin-7(6H)-one]
IC50 [1]: > 30000 nM

CC(=O)N1CCN(c2nc(N[C@H](C)c3ccc4c(c3)OC(F)(F)O4)c3c(n2)C(=O)N(C(C)C)C3)CC1 [Example 359, (R)-2-(4-acetylpiperazin-1-yl)-4-(1-(2,2-difluorobenzo[d][1,3]dioxol-5-yl)ethylamino)-6-isopropyl-5H-pyrrolo[3,4-d]pyrimidin-7(6H)-one]
IC50 [1]: 511 nM

CC(=O)N1CCN(c2nc3c(c(N(C)Cc4ccc5c(c4)OC(F)(F)O5)n2)CN(C(C)C)C3=O)CC1 [Example 360, 2-(4-acetylpiperazin-1-yl)-4-(((2,2-difluorobenzo[d][1,3]dioxol-5-yl)methyl)(methyl)amino)-6-isopropyl-5H-pyrrolo[3,4-d]pyrimidin-7(6H)-one]
IC50 [1]: > 30000 nM

CCOc1ccc([C@@H](C)Nc2nc(N3CCN(CC)C(=O)C3)nc3c2CN(C(C)C)C3=O)cc1 [Example 361, (R)-4-(1-(4-ethoxyphenyl)ethylamino)-2-(4-ethyl-3-oxopiperazin-1-yl)-6-isopropyl-5H-pyrrolo[3,4-d]pyrimidin-7(6H)-one]
IC50 [1]: 327 nM

CCN1CCN(c2nc3c(c(N(C)Cc4cc5ccccc5cn4)n2)CN(C(C)C)C3=O)CC1=O [Example 362, 2-(4-ethyl-3-oxopiperazin-1-yl)-6-isopropyl-4-((isoquinolin-3-ylmethyl)(methyl)amino)-5H-pyrrolo[3,4-d]pyrimidin-7(6H)-one]
IC50 [1]: 356 nM

CCOc1ccc([C@@H](C)Nc2nc(N3CCN(CC(F)(F)F)C(=O)C3)nc3c2CN(C(C)C)C3=O)cc1 [Example 363, (R)-4-(1-(4-ethoxyphenyl)ethylamino)-6-isopropyl-2-(3-oxo-4-(2,2,2-trifluoroethyl)piperazin-1-yl)-5H-pyrrolo[3,4-d]pyrimidin-7(6H)-one]
IC50 [1]: 574 nM

CC(C)N1Cc2c(nc(N3CCN(CC(F)(F)F)C(=O)C3)nc2N(C)Cc2cc3ccccc3cn2)C1=O [Example 364, 6-isopropyl-4-((isoquinolin-3-ylmethyl)(methyl)amino)-2-(3-oxo-4-(2,2,2-trifluoroethyl)piperazin-1-yl)-5H-pyrrolo[3,4-d]pyrimidin-7(6H)-one]
IC50 [1]: 795 nM

— patent US20090099195A1 (ASTRAZENECA AB, priority 2007, published 2009)
